Common to all, as to assay: NCI-60 cell line screen, 48 h
In assay [1] the test system is T-47D breast.
In assay [2] the test system is MOLT-4 leukemia.
Assay [3] has as its system SNB-75 CNS.
For assay [4], the system named is RPMI-8226 leukemia.
Assay [5] relates to MDA-MB-435.
For assay [6], the system named is HT29 colon.
Assay [7] relates to EKVX NSCLC.
For assay [8], the system named is OVCAR-5 ovarian.
Assay [9] concerns SK-MEL-28 melanoma.
Assay [10] deals with HS 578T breast.

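48-hour exposure; five concentrations; linearly interpolated endpoints. Abbreviation: GI50, concentration required for 50% inhibition of growth. The concentration for full growth arrest is given as TGI.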

The results in this text go back to PubChem BioAssay (NCI).

With `O=[N+]([O-])c1ccc(-c2ccccc2)c([As](=O)(O)O)c1`, the GI50 in assay [1] is 4.35 µM; in assay [2], 19.9 µM; in assay [3] it was 15.1 µM; in [4], 15.2 µM; in assay [5], 21.9 µM; in assay [6], 13.5 µM. Also, the GI50 in [7] was 15.9 µM; in assay [8], 28.4 µM; in assay [9] it was 18 µM; in assay [10] it was 0.798 µM. For the same compound, the TGI in [1] is 49.5 µM; in [2], greater than 100 µM; in assay [3] it was greater than 100 µM; in assay [4], 62.9 µM; in assay [5], greater than 100 µM; in [6], 32.2 µM. Moreover, the TGI in [7] was greater than 100 µM; in assay [8], greater than 100 µM; in assay [9] it was 50.3 µM; in assay [10] it was 18.4 µM.

Turning to `CC(=O)OCC(=O)C1(O)C(C)CC2C3C=C(C)C4=Cc5c(cnn5-c5ccccc5)CC4(C)C3C(O)CC21C` (configuration not stated), the GI50 is 2.63 µM in [1]; 0.753 µM in assay [2]; 1.89 µM in assay [3]; less than 0.0345 µM in assay [4]; 2.33 µM in assay [5]; 0.971 µM in assay [6]. For the same compound, the GI50 in assay [7] is 1.48 µM; in [8] it was 1.1 µM; in [9], 1.41 µM; in assay [10], 1.17 µM. In addition, the TGI in assay [1] is 9.39 µM; in assay [2] it was greater than 22 µM; in assay [3], 5.92 µM; in assay [5] it was 7.33 µM; in assay [6] it was 2.42 µM; in assay [7], 13.1 µM. The TGI in assay [8] amounted to 3.92 µM; in assay [9], 3.01 µM; in [10], 4.75 µM.

As for `CON`, the GI50 in assay [1], in assay [2], in assay [3], in assay [4], in assay [5] and in assay [6] was greater than 100 µM throughout. The GI50 in [7], in [8], in [9] and in assay [10] was greater than 100 µM in each case. Besides, the TGI in assay [1], in assay [2], in [3], in [4], in assay [5] and in assay [6] was greater than 100 µM throughout. The TGI in assay [7], in assay [8], in assay [9] and in assay [10] was greater than 100 µM in each case.

Regarding `CNCCOc1nc2c3cnccc3cc(-c3cc(OC)c(OC)c(OC)c3)c2c2ccncc12`, the GI50 in assay [1] is 0.0296 µM; in assay [2] it was less than 0.01 µM; in [3], 0.0304 µM; in assay [4] it was 0.0229 µM; in [5], 0.115 µM; in [6], 0.0372 µM. Moreover, the GI50 in assay [7] is 0.0782 µM; in assay [8] it was 0.0403 µM; in assay [9], 0.125 µM; in assay [10], 0.139 µM. Moreover, the TGI in assay [1] was determined as 0.48 µM; in [2] it was 0.0478 µM; in assay [3] it was 0.162 µM; in assay [4] it was 0.113 µM; in assay [5] it was 0.327 µM; in assay [6] it was 1.07 µM. Also, the TGI is 0.432 µM in assay [7], 0.426 µM in assay [8], 0.525 µM in assay [9] and 0.747 µM in assay [10].

On to `C=C1CO[C@@H]2C[C@@H]1CC/C(C)=C/CC/C(C)=C/CC[C@@]2(C)O`, for which the GI50 was 18.3 µM in assay [1]; 1.26 µM in assay [2]; 25 µM in [3]; 10.9 µM in [4]; 20.9 µM in [5]; 28.4 µM in assay [6]. The GI50 was 22.4 µM in assay [7], 18.7 µM in assay [8], 16.8 µM in assay [9] and 25.7 µM in assay [10]. In addition, the TGI in assay [1] came out at 42.8 µM; in assay [2], 12.4 µM; in assay [3], 46.3 µM; in [4] it was 33.9 µM; in assay [5] it was 42.2 µM; in assay [6], 94.1 µM. The TGI in [7] is 45.2 µM; in [8], 39.9 µM; in assay [9] it was 38.3 µM; in [10], greater than 83.4 µM.

Take `COc1cccc(Nc2nccc(Nc3ccc4[nH]ncc4c3)n2)c1`: the GI50 in assay [1] was 1.05 µM; in assay [2], 0.525 µM; in [3] it was 1.39 µM; in assay [4], 1.36 µM; in assay [5] it was 1.49 µM; in [6], 1.52 µM. Also, the figures for the GI50 in [7] and in [10] were 1.64 µM and 1.79 µM, respectively. Besides, the TGI in assay [1] is 3.12 µM; in assay [2], 2.83 µM; in assay [3] it was 3.13 µM; in assay [4] it was 4.19 µM; in assay [5], 3.18 µM; in assay [6] it was 3.45 µM. The TGI came out at 4.09 µM in [7] and 4.61 µM in assay [10].

Consider `NC(=O)NC(=O)C1CCCCC1C(=O)O` (configuration not stated), for which the TGI in [1], in [3], in [4], in assay [5], in [6] and in assay [7] was greater than 100 µM in each case. Further, the TGI in [8], in [9] and in [10] was greater than 100 µM throughout.

With `COc1ccc(C2C3=C(COC3=O)N(CCO)c3cc4c(cc32)OCCO4)cc1OC` (configuration not stated), the GI50 in assay [1] is 2.17 µM; in assay [2], 2.85 µM; in [4] it was 1.91 µM; in assay [5] it was 0.255 µM; in assay [6], 1.64 µM; in [7] it was 5.98 µM. In addition, the results for the GI50 in [8], in assay [9] and in assay [10] were 18.4 µM, greater than 50 µM and 1.44 µM, respectively. Moreover, the TGI in assay [1] is greater than 50 µM; in assay [2] it was greater than 47.4 µM; in [4] it was greater than 12.6 µM; in assay [5], 1.78 µM; in [6], greater than 14.9 µM; in [7], greater than 50 µM. Moreover, the TGI in assay [8], in [9] and in assay [10] was greater than 50 µM throughout.
